In PubChem BioAssay AID2060487 (Molecular Pharmacology Branch, DTP, NCI, 2025) one finds IC50 and viability, T/C data, which are given here for 11 molecules.

This assay relates to 997537-175-T-J1-PDC complex spheroid viability. The assay can be described thus: Anticancer human tumor 997537-175-T-J1-PDC patient-derived colon adenocarcinoma cell line growth inhibition [GQUAD]. The conditions noted are these: for viability, T/C: stronger effect = lower value. An excerpt:
DNA G-quadruplex Stabilizer Agents in Combinations in Complex Spheroids
A high-throughput screen of multi-cell type tumor spheroids was designed to identify active combinations of DNA G-quadruplex stabilizer agents and targeted small molecules. Complex spheroids include a stromal component modeled by human endothelial cells (HUVEC) and fibroblasts modeled by human mesenchymal stem cells (MSCs). The concentration ranges selected for each drug and investigational agent were based upon clinically achievable concentrations if the clinical Cmax of the agent was known.
Compounds. The drugs and investigational agents: pidnarulex (CX-5461; NSC782164), APTO-253 (NSC789042), BRACO-19 (NSC847499), peposertib (NSC802822), ceralasertib (NSC780249), elimusertib (NSC800525), camonsertib (NSC841442), AZD-1390 (NSC803789), olaparib (NSC753686), talazoparib (NSC767125), ART-558 (NSC835418), sotorasib (NSC818433), MRTX-1133 (NSC836407), SN-38 (NSC673596), topotecan (NSC609699), etoposide (NSC141540), doxorubicin (NSC123127), gemcitabine (NSC613327), 5-fluorouracil (NSC19893), paclitaxel (NSC125973), vemurafenib (NSC761431), panobinostat (NSC761190), R-306465 (JNJ-16241199; NSC773264), adavosertib (NSC754352), TP-3654 (NSC805149), carboplatin (NSC241240), KSQ-4279 (NSC840948), and staurosporine (NSC755774) were obtained from the National Cancer Institute (NCI) Developmental Therapeutics Program Chemical Repository (34). The FDA-approved anticancer drug set is available from the NCI Developmental Therapeutics Program. […] The stock solutions were prepared in dimethyl sulfoxide (DMSO, Sigma-Aldrich, St. Louis, MO, cat. D2650) at 800-fold the tested concentration and stored at -70 degrees C prior to their use. All drugs and investigational agents were tested over a range starting from a high concentration at or near the clinical Cmax and decreasing in half-log increments. If the clinical Cmax for an agent had not been determined, the highest concentration tested was 10 microM.
2.3 Cell Culture. All cells were maintained in an incubator at 37 degrees C and 5% CO2 with 95% humidity. The PDC lines were cultured according to standard operating procedures established by the NCI PDMR. All PDCs were thawed and cultured in Matrigel-coated flasks prepared with a working solution of 1X Ham's F-12 nutrient mix, without supplementation (Invitrogen, cat. 11765054), 100 U/mL penicillin-streptomycin (Invitrogen, cat. 15140122), and 2.5% Matrigel (Corning Inc., cat. 354248) for the first three passages. The 857933-349-R-J2-PDC line was cultured in 6C/Colon 1B media, which includes advanced DMEM/F-12 (Thermo Fisher Scientific, cat. 12634028), 10 mM HEPES (Thermo Fisher Scientific, cat. 15630080), 1X GlutaMAX supplement (Thermo Fisher Scientific, cat. 35050061), 0.1 mg/mL primocin (InvivoGen, cat. ant-pm-2), 10% defined fetal bovine serum, heat inactivated (HyClone Laboratories Inc., cat. SH30070.03HI), 50% L-WRN conditioned media (ATCC, cat. CRL-3276), 1.25 mM N-Acetyl-L-cysteine (Sigma-Aldrich, cat. A9165), 10 mM nicotinamide (Sigma-Aldrich, cat. N0636), 1X B-27 supplement (Thermo Fisher Scientific, cat. 17504044), 1X N-2 supplement (Thermo Fisher Scientific, cat. 17502048), 10 microM Y-27632 dihydrochloride (Tocris Bioscience, cat. 1254), and 50 ng/mL human EGF recombinant protein (Thermo Fisher Scientific, cat. PHG0311). The 485176-168-R4-J1-PDC line was cultured in Panc media, which includes all 6C/Colon 1B media components plus 100 ng/mL human FGF-10 (Thermo Fisher Scientific, cat. 100-26), 500 nM SB-431542 (Selleckchem, cat. S1067), and gastrin (Tocris, cat. 3006).
[…]

Each structure is given as a SMILES string. “And” between values parts separate entries of the source, which are not always exact repeats. Identical values can stand only once.
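Further: spheroids exposed to the agents for 7 days.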

The term IC50 denotes the point on the concentration scale where inhibition reaches its midpoint. In general, viability, T/C refers to the ratio of treated to control. As to `CC1COCCN1c1cc(-c2ccnn2C)c2ccnc(-c3ccn[nH]3)c2n1` (stereo unspecified) + Cc1cnc(CNC(=O)c2c(=O)c3ccc(N4CCCN(C)CC4)nc3n3c2sc2ccccc23)cn1, the half-maximal inhibitory concentration (IC50) runs as follows: (curve of first compound, second compound 0.0316 µM) 0.147 µM; (curve of first compound, second compound 0.1 µM) 0.157 µM; (curve of first compound, second compound 0.316 µM) under 0.0316 µM; (curve of first compound, second compound 1 µM) over 10 µM; (curve of first compound, second compound 3.16 µM) over 10 µM; (curve of first compound, second compound 10 µM) under 0.0316 µM. Further, the viability, T/C is 80.7% (second compound 0.0316 µM, first compound 0.0316 µM); 54% (second compound 0.0316 µM, first compound 0.1 µM); 37.4% (second compound 0.0316 µM, first compound 0.316 µM); 33.7% (second compound 0.0316 µM, first compound 1 µM); 43.5% (second compound 0.0316 µM, first compound 3.16 µM); 53.1% (second compound 0.0316 µM, first compound 10 µM). In addition, the viability, T/C (second compound 0.1 µM, first compound 0.0316 µM) is 65.9%; the viability, T/C (second compound 0.1 µM, first compound 0.1 µM) was 53.8%; the viability, T/C (second compound 0.1 µM, first compound 0.316 µM) is 48.4%; the viability, T/C (second compound 0.1 µM, first compound 1 µM) is 29.8%; the viability, T/C (second compound 0.1 µM, first compound 3.16 µM) is 51.7%; the viability, T/C (second compound 0.1 µM, first compound 10 µM) is 55.2%. The viability, T/C was 52.7% (second compound 0.316 µM, first compound 0.0316 µM); 39% (second compound 0.316 µM, first compound 0.1 µM); 34.8% (second compound 0.316 µM, first compound 0.316 µM); 37.6% (second compound 0.316 µM, first compound 1 µM); 48.5% (second compound 0.316 µM, first compound 3.16 µM); 45% (second compound 0.316 µM, first compound 10 µM). For the same molecule, the viability, T/C is, setting by setting: (second compound 1 µM, first compound 0.0316 µM) 55.3%; (second compound 1 µM, first compound 0.1 µM) 58.5%; (second compound 1 µM, first compound 0.316 µM) 67.5%; (second compound 1 µM, first compound 1 µM) 57.5%; (second compound 1 µM, first compound 3.16 µM) 58.2%; (second compound 1 µM, first compound 10 µM) 51%. In addition, the viability, T/C is, setting by setting: (second compound 3.16 µM, first compound 0.0316 µM) 63.1%; (second compound 3.16 µM, first compound 0.1 µM) 63.7%; (second compound 3.16 µM, first compound 0.316 µM) 48.5%; (second compound 3.16 µM, first compound 1 µM) 67.5%; (second compound 3.16 µM, first compound 3.16 µM) 57.8%; (second compound 3.16 µM, first compound 10 µM) 48%. Further, the viability, T/C reads like this: (second compound 10 µM, first compound 0.0316 µM) 43.1%; (second compound 10 µM, first compound 0.1 µM) 52%; (second compound 10 µM, first compound 0.316 µM) 66.7%; (second compound 10 µM, first compound 1 µM) 54.9%; (second compound 10 µM, first compound 3.16 µM) 39.8%; (second compound 10 µM, first compound 10 µM) 63.3%.

For `CC1COCCN1c1cc(C2(O)CC3CCC(C2)O3)c2cnn(-c3ccn[nH]3)c2n1` (stereo unspecified), the viability, T/C is, setting by setting: (compound 0.0316 µM) 86.8% and 86.6% and 96.4%; (compound 0.1 µM) 57.4% and 66.7% (2×); (compound 0.316 µM) 50.3% and 53.8% and 37.7%; (compound 1 µM) 51.1% and 54.5% and 70.1%; (compound 3.16 µM) 49.2% and 35.5% and 36.5%; (compound 10 µM) 44.9% and 33.9% and 48.4%. Moreover, the 50% inhibitory concentration (IC50) (curve of compound) is 0.345 µM and 0.701 µM and 0.282 µM.

Take `CN(C)c1ccc(Nc2c3ccc(NC(=O)CCN4CCCC4)cc3nc3cc(NC(=O)CCN4CCCC4)ccc23)cc1`: under “compound 0.316 µM”, the viability, T/C was 97.1% [middle of 12 runs]. Besides, the concentration for half-maximal inhibition (IC50) (compound alone, run of 04/22/2024) was over 10 µM.

Turning to `CCCS(=O)(=O)Nc1ccc(F)c(C(=O)c2c[nH]c3ncc(-c4ccc(Cl)cc4)cc23)c1F`, the viability, T/C is 98.4% and 98.6% and 86.2% (compound 0.0316 µM); 99.3% and 95.1% and 77.8% (compound 0.1 µM); 97.4% and 68.8% and 65.1% (compound 0.316 µM); 89.6% and 71.8% and 53% (compound 1 µM); 45.4% and 56.1% and 52.3% (compound 3.16 µM); 34.9% and 24.1% and 25% (compound 10 µM). Besides, where the note is “curve of compound”, the IC50 is 2.81 µM and 3.15 µM and 1.79 µM.

Turning to `Cn1ncnc1[C@H]1c2n[nH]c(=O)c3cc(F)cc(c23)N[C@@H]1c1ccc(F)cc1`, the viability, T/C reads like this: (compound 0.000999 µM) 91.9% and 91.2% and 104%; (compound 0.00316 µM) 89.7% and 92.9% and 86%; (compound 0.00999 µM) 107% and 90.8% and 92.9%; (compound 0.0316 µM) 72.1% and 87.1% and 89.7%; (compound 0.0999 µM) 90.8% and 64% and 84%; (compound 0.316 µM) 85.8% and 73.8% and 89%. Further, under “curve of compound”, the IC50 was over 0.316 µM.

Regarding `COc1cc(C2c3cc4c(cc3C(OC3OC5COC(C)OC5C(O)C3O)C3COC(=O)C23)OCO4)cc(OC)c1O` (stereo unspecified), the viability, T/C runs as follows: (compound 0.0316 µM) 109% and 95.5% and 112%; (compound 0.1 µM) 89.4% and 75.1% and 76.9%; (compound 0.316 µM) 77.2% and 92.8% and 91.9%; (compound 1 µM) 93.1% and 76.8% and 89%; (compound 3.16 µM) 82.3% and 81.8% and 82.2%; (compound 10 µM) 60.9% and 54.7% and 74.6%. Where the note is “curve of compound”, the IC50 is over 10 µM.

In the case of `CC1COCCN1c1cc(C2(S(C)(=N)=O)CC2)nc(-c2ccnc3[nH]ccc23)n1` (stereo unspecified), the viability, T/C (compound 0.0316 µM) was 98.9% and 93.7% and 101%; the viability, T/C (compound 0.1 µM) is 81.9% and 86.5% and 95.8%; the viability, T/C (compound 0.316 µM) is 83.6% and 94.9% and 77%; the viability, T/C (compound 1 µM) is 83.5% and 68.5% and 90.1%; the viability, T/C (compound 3.16 µM) was 56.5% and 65.7% and 59.5%; the viability, T/C (compound 10 µM) was 46.4% and 44.1% and 36.8%. For the same molecule, for the setting “curve of compound”, the IC50 was 7.16 µM and 7.09 µM and 5.6 µM.

Regarding `COc1cccc2c1C(=O)c1c(O)c3c(c(O)c1C2=O)CC(O)(C(=O)CO)CC3OC1CC(N)C(O)C(C)O1` (stereo unspecified), the viability, T/C (compound 0.0316 µM) is 98.9% and 107% and 104%; the viability, T/C (compound 0.1 µM) was 95.5% and 101% and 75.2%; the viability, T/C (compound 0.316 µM) was 92.8% and 91.6% and 89.9%; the viability, T/C (compound 1 µM) was 99.9% and 88.3% and 107%; the viability, T/C (compound 3.16 µM) is 76.1% and 72.2% and 74.3%; the viability, T/C (compound 10 µM) was 51.4% and 40.7% and 23.7%. Moreover, the IC50 (curve of compound) is > 10 µM and 7.16 µM and 5.5 µM.

Turning to `CC(=O)O[C@H]1C(=O)[C@@]2(C)[C@H]([C@H](OC(=O)c3ccccc3)[C@]3(O)C[C@H](OC(=O)[C@H](O)[C@@H](NC(=O)c4ccccc4)c4ccccc4)C(C)=C1C3(C)C)[C@]1(OC(C)=O)CO[C@@H]1C[C@@H]2O`, the viability, T/C runs as follows: (compound 0.0316 µM) 104% and 77.3% and 50.1%; (compound 0.1 µM) 92.5% and 40.4% and 45.4%; (compound 0.316 µM) 91.8% and 22.7% and 36.3%; (compound 1 µM) 74.7% and 34.4% and 39.1%; (compound 3.16 µM) 53.2% and 23.9% and 28.3%; (compound 10 µM) 0.36% and 20.5% and 22%.

In the case of `C=CCn1c(=O)c2cnc(Nc3ccc(N4CCN(C)CC4)cc3)nc2n1-c1cccc(C(C)(C)O)n1`, the viability, T/C is 95.7% and 89.4% and 112% (compound 0.0316 µM); 75.6% and 101% and 92.2% (compound 0.1 µM); 81.8% and 88.3% and 92.2% (compound 0.316 µM); 80.2% and 84.5% and 79.4% (compound 1 µM); 73.2% and 44.9% and 49.3% (compound 3.16 µM); 28.9% and 30.8% and 24.2% (compound 10 µM). In addition, the IC50 (curve of compound) is 5.75 µM and 2.73 µM and 3.53 µM.

As to `CC(C)n1c(=O)n(C)c2cnc3cc(F)c(-c4ccc(OCCCN5CCCCC5)nc4)cc3c21`, the viability, T/C is, setting by setting: (compound 0.0316 µM) 97.6% and 103% and 97%; (compound 0.1 µM) 90.3% and 99.9% and 82.4%; (compound 0.316 µM) 110% and 106% and 99.8%; (compound 1 µM) 107% and 99.2% and 103%; (compound 3.16 µM) 83.5% and 78.7% and 101%; (compound 10 µM) 83.4% and 93.4% and 92%. Moreover, under “curve of compound”, the IC50 is over 10 µM.
